Test results from US9708259B2 (Hoffmann-La Roche Inc., priority 2013, dated 2017).
Positions count from the first letter of the chain named. Like-named read-outs stand apart in the source and are kept apart here.

Legend:
human M1 = molecular target: T1, human M1 (Homo sapiens, UniProt P11229); experiment: M1 PAM assay (FLIPR intracellular calcium), human M1; type: cell-based
T1 construct: expressed in transfected cells; host or cells: CHO cells
T1 sequence (P11229 1-460): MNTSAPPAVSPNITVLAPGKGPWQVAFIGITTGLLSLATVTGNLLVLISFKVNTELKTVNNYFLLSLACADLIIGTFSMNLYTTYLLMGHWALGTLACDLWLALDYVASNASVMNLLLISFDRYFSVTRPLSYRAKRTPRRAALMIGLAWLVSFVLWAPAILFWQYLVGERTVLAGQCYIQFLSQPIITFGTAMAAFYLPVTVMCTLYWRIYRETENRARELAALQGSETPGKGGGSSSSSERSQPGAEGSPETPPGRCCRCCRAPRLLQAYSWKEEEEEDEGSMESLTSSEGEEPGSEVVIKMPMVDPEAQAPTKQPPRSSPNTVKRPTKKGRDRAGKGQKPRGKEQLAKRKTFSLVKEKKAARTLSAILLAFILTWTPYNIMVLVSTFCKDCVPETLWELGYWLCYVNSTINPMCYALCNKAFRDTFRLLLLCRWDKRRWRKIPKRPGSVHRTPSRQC
Procedure, shortened: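 CHO cells expressing M1, Fluo-4AM-loaded, in HEPES/probenecid HBSS pH 7.4, 1% DMSO final. Compounds pre-incubated 2 min for agonist activity versus 30 nM acetylcholine control. For PAM activity, acetylcholine EC20 added after the 2 min pre-incubation, then 2 min more before FLIPR intracellular Ca2+ read.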

ratM1 = molecular target: T2, ratM1 (Rattus norvegicus, UniProt P08482); experiment: M1 PAM assay (FLIPR intracellular calcium), rat M1; type: cell-based
T2 construct: expressed in transfected cells; host or cells: CHO cells (stated generally for the assay, not specifically for rat M1)
T2 sequence (P08482 1-460): T1 sequence (P11229 1-460) with A5V, T254S, P309S, R320K, A337G, I413V

[1] = CHO human M1 cells, FLIPR Ca2+, with EC20 of acetylcholine, first value of the cell, read-out: hM1 EC50
[2] = rat M1, FLIPR Ca2+, second value of the cell, read-out: ratM1 EC50

SMILES | EC50 (human M1; [1]) [nM] | EC50 (ratM1; [2]) [nM] | EC50 (human M1) [nM] | EC50 (ratM1) [nM]
Cn1cc(-c2ccc(Cn3cc(C(=O)N[C@H]4CCCC[C@@H]4O)c4c(F)cccc43)cn2)cn1 [Example 30, 4-fluoro-N-((1S,2S)-2-hydroxycyclohexyl)-1-((6-(1-methyl-1H-pyrazol-4-yl)pyridine-3-yl)methyl)-1H-indole-3-carboxamide] | 13.2 | 14.1 | – | –
COc1ccc(Cn2cc(C(=O)N[C@H]3CCCC[C@@H]3O)c3c(F)cccc32)cc1 [Example 31, 4-fluoro-N-((1S,2S)-2-hydroxycyclohexyl)-1-(4-methoxybenzyl)-1H-indole-3-carboxamide] | – | – | 90.6 | 160
N#Cc1ccc(Cn2cc(C(=O)N[C@H]3CCCC[C@@H]3O)c3c(F)cccc32)cc1 [Example 32, 1-(4-cyanobenzyl)-4-fluoro-N-((1S,2S)-2-hydroxycyclohexyl)-1H-indole-3-carboxamide] | – | – | 105 | 223
COc1ccc(Cn2cc(C(=O)N[C@H]3CCCC[C@@H]3O)c3c(F)cccc32)cc1F [Example 33, 4-fluoro-1-(3-fluoro-4-methoxybenzyl)-N-((1S,2S)-2-hydroxycyclohexyl)-1H-indole-3-carboxamide] | – | – | 104 | 222
Cc1cn(-c2ccc(Cn3cc(C(=O)N[C@H]4CCCC[C@@H]4O)c4c(F)cccc43)cc2)cn1 [Example 36, 4-fluoro-N-((1S,2S)-2-hydroxycyclohexyl)-1-(4-(4-methyl-1H-imidazol-1-yl)benzyl)-1H-indole-3-carboxamide] | 15.5 | 25.9 | – | –
Cn1ncc2cc(Cn3cc(C(=O)N[C@H]4CCCC[C@@H]4O)c4c(F)cccc43)ccc21 [Example 37, 4-fluoro-N-((1S,2S)-2-hydroxycyclohexyl)-1-((1-methyl-1H-indazol-5-yl)methyl)-1H-indole-3-carboxamide] | – | – | 43.8 | 39.5
O=C(N[C@H]1CCCC[C@@H]1O)c1cn(Cc2ccc(Cl)cc2)c2cccc(F)c12 [Example 38, 1-(4-chlorobenzyl)-4-fluoro-N-((1S,2S)-2-hydroxycyclohexyl)-1H-indole-3-carboxamide] | – | – | 131 | 382
O=C(N[C@H]1CCCC[C@@H]1O)c1cn(Cc2ccc(F)c(F)c2)c2cccc(F)c12 [Example 41, 1-(3,4-difluorobenzyl)-4-fluoro-N-((1S,2S)-2-hydroxycyclohexyl)-1H-indole-3-carboxamide] | – | – | 219 | 456
O=C(N[C@H]1CCCC[C@@H]1O)c1cn(Cc2ccc(F)cc2)c2cccc(F)c12 [Example 42, 4-fluoro-1-(4-fluorobenzyl)-N-((1S,2S)-2-hydroxycyclohexyl)-1H-indole-3-carboxamide] | – | – | 110 | 200
O=C(N[C@H]1CCCC[C@@H]1O)c1cn(Cc2cc(F)cc(F)c2)c2cccc(F)c12 [Example 43, 1-(3,5-difluorobenzyl)-4-fluoro-N-((1S,2S)-2-hydroxycyclohexyl)-1H-indole-3-carboxamide] | – | – | 488 | 632
Cn1cc(-c2ccc(Cn3cc(C(=O)N[C@H]4CCCC[C@@H]4O)c4c(F)cccc43)cc2)cn1 [Example 44, 4-fluoro-N-((1S,2S)-2-hydroxycyclohexyl)-1-(4-(1-methyl-1H-pyrazol-4-yl)benzyl)-1H-indole-3-carboxamide] | 6 | 9.8 | – | –
Cc1ccc(F)c2c(C(=O)N[C@H]3CCCC[C@@H]3O)cn(Cc3ccc(-c4cnn(C)c4)cc3F)c12 [Example 45, 4-fluoro-1-(2-fluoro-4-(1-methyl-1H-pyrazol-4-yl)benzyl)-N-((1S,2S)-2-hydroxycyclohexyl)-7-methyl-1H-indole-3-carboxamide] | 36.1 | 74.1 | – | –
Cc1ccc(F)c2c(C(=O)N[C@H]3CCCC[C@@H]3O)cn(Cc3ccc(-c4cnn(C)c4)cc3)c12 [Example 46, 4-fluoro-N-((1S,2S)-2-hydroxycyclohexyl)-7-methyl-1-(4-(1-methyl-1H-pyrazol-4-yl)benzyl)-1H-indole-3-carboxamide] | 10.3 | 22.2 | – | –
O=C(N[C@H]1CCCC[C@@H]1O)c1cn(Cc2ccccc2)c2cccc(F)c12 [Example 47, 1-benzyl-4-fluoro-N-((1S,2S)-2-hydroxycyclohexyl)-1H-indole-3-carboxamide] | – | – | 118 | 393
Cc1ccc(F)c2c(C(=O)NC3CCCOC3)cn(Cc3ccc(-c4cnn(C)c4)cc3)c12 (stereo not shown) [Example 48, 4-fluoro-7-methyl-1-(4-(1-methyl-1H-pyrazol-4-yl)benzyl)-N-(tetrahydro-2H-pyran-3-yl)-1H-indole-3-carboxamide] | 251 | 528 | – | –
Cc1ccc(F)c2c(C(=O)NC3CCOCC3)cn(Cc3ccc(-c4cnn(C)c4)cc3)c12 [Example 49, 4-fluoro-7-methyl-1-(4-(1-methyl-1H-pyrazol-4-yl)benzyl)-N-(tetrahydro-2H-pyran-4-yl)-1H-indole-3-carboxamide] | 44.5 | 52.5 | – | –
Cc1ccn(-c2ccc(Cn3cc(C(=O)N[C@H]4CCCC[C@@H]4O)c4c(F)cccc43)cc2)n1 [Example 50, 4-fluoro-N-((1S,2S)-2-hydroxycyclohexyl)-1-(4-(3-methyl-1H-pyrazol-1-yl)benzyl)-1H-indole-3-carboxamide] | 18.3 | 13.9 | – | –
Cn1cc(-c2ccc(Cn3cc(C(=O)N[C@H]4CCCC[C@@H]4O)c4c(F)c(F)c(F)c(F)c43)cc2)cn1 [Example 53, 4,5,6,7-tetrafluoro-N-((1S,2S)-2-hydroxycyclohexyl)-1-(4-(1-methyl-1H-pyrazol-4-yl)benzyl)-1H-indole-3-carboxamide] | 44.1 | 47.5 | – | –
Cn1cnc2cc(Cn3cc(C(=O)N[C@H]4CCCC[C@@H]4O)c4c(F)cccc43)ccc21 [Example 56, 4-fluoro-N-((1S,2S)-2-hydroxycyclohexyl)-1-((1-methyl-1H-benzo[d]yridine-5-yl)methyl)-1H-indole-3-carboxamide] | – | – | 136 | 285
Cn1cc(-c2ccc(Cn3cc(C(=O)N[C@H]4CCCC[C@@H]4O)c4c(F)c(F)ccc43)cn2)cn1 [Example 58, 4,5-difluoro-N-((1S,2S)-2-hydroxycyclohexyl)-1-((6-(1-methyl-1H-pyrazol-4-yl)pyridine-3-yl)methyl)-1H-indole-3-carboxamide] | 174 | 10000 | – | –
CNC(=O)c1ccc(Cn2cc(C(=O)N[C@H]3CCCC[C@@H]3O)c3c(F)cccc32)cc1 [Example 59, 4-fluoro-N-((1S,2S)-2-hydroxycyclohexyl)-1-(4-(methylcarbamoyl)benzyl)-1H-indole-3-carboxamide] | 4.33 | 4.35 | – | –
Cc1cn(-c2ccc(Cn3cc(C(=O)N[C@H]4CCCC[C@@H]4O)c4c(F)c(F)ccc43)cc2)cn1 [Example 60, 4,5-difluoro-N-((1S,2S)-2-hydroxycyclohexyl)-1-(4-(4-methyl-1H-imidazol-1-yl)benzyl)-1H-indole-3-carboxamide] | 101 | 183 | – | –
Cc1ccn(-c2ccc(Cn3cc(C(=O)N[C@H]4CCCC[C@@H]4O)c4c(F)c(F)ccc43)cc2)n1 [Example 61, 4,5-difluoro-N-((1S,2S)-2-hydroxycyclohexyl)-1-(4-(3-methyl-1H-pyrazol-1-yl)benzyl)-1H-indole-3-carboxamide] | 343 | 515 | – | –
Cn1cc(-c2ccc(Cn3cc(C(=O)NC4CCOCC4)c4c(F)cccc43)cc2)cn1 [Example 65, Fluoro-1-(4-(1-methyl-1H-pyrazol-4-yl)benzyl)-N-(tetrahydro-2H-pyran-4-yl)-1H-indole-3-carboxamide] | 32.4 | 59.9 | – | –
Cn1ncc2cc(Cn3cc(C(=O)NC4CCOCC4)c4c(F)cccc43)ccc21 [Example 66, 4-fluoro-1-((1-methyl-1H-indazol-5-yl)methyl)-N-(tetrahydro-2H-pyran-4-yl)-1H-indole-3-carboxamide] | – | – | 216 | 412
Cc1cn(-c2ccc(Cn3cc(C(=O)NC4CCOCC4)c4c(F)cccc43)cc2)cn1 [Example 67, 4-fluoro-1-(4-(4-methyl-1H-imidazol-1-yl)benzyl)-N-(tetrahydro-2H-pyran-4-yl)-1H-indole-3-carboxamide] | 82.8 | 183 | – | –
